Here are results for 9 compounds from ChEMBL document CHEMBL1201862, “PubChem BioAssay data set” (2004).

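These data come from cells grown in 96-well plates and exposed to compound for 48 hours at five concentrations. At the GI50, growth is halved.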 Active and inactive are the calls of the source. Rule as the data show it: active = GI50 up to about 1.1 µM and inactive = higher.

Test systems include KM12; ACHN; HL-60; Malme-3M; SNB-19; LOX IMVI; IGROV-1; NCI-H522; NCI/ADR-RES; RXF 393; SF-539; U-251; MDA-MB-435; Hs-578T; UO-31; 786-0; HCC 2998; CAKI-1; A498.
Common to all, as to assay: growth of human tumour cells (NCI), 48 h

`COc1cccc2c1C(=O)c1c(O)c3c(c(O)c1C2=O)CC(O)(C(C)=O)CC3OC1OC(COC(C)=O)C(OC(C)=O)C(OC(C)=O)C1OC(C)=O` (configuration not stated): the GI50 in the experiment on KM12 is 52.7 µM (inactive); with ACHN, 17.4 µM (inactive); in the experiment on HL-60 it was 53.8 µM (inactive); in the experiment on Malme-3M, 35.6 µM (inactive); with SNB-19 it was 16 µM (inactive); with LOX IMVI, 29.9 µM (inactive). The GI50 is 16.3 µM (inactive) in the experiment on IGROV-1; > 100 µM (inactive) with NCI-H522; > 100 µM (inactive) in the experiment with NCI/ADR-RES; 0.269 µM (active) with RXF 393; 16.8 µM (inactive) in the experiment on SF-539; 12.9 µM (inactive) with U-251. For the same compound, the GI50 with MDA-MB-435 was 88.7 µM (inactive); in the experiment on Hs-578T, 14.5 µM (inactive); in the experiment on UO-31, > 100 µM (inactive); in the experiment with 786-0, 12.1 µM (inactive).

On to `COc1cc([C@@H]2c3cc4c(c(O)c3C[C@H]3COC(=O)[C@@H]32)OCO4)cc(OC)c1OC` [BETA-PELTATIN A], for which the GI50 was 0.015 µM (active) in the experiment with KM12; 0.015 µM (active) in the experiment with HCC 2998; 0.0241 µM (active) in the experiment on ACHN; 0.0156 µM (active) with Malme-3M; 0.015 µM (active) in the experiment on SNB-19; 0.0267 µM (active) with LOX IMVI. For the same compound, the GI50 in the experiment with IGROV-1 is 0.015 µM (active); in the experiment on NCI-H522, 0.0676 µM (active); with Hs-578T, 0.0241 µM (active); with UO-31 it was 0.0693 µM (active); in the experiment with 786-0, 0.0241 µM (active); in the experiment with CAKI-1, 0.015 µM (active).

In the case of `O=C1C(=Cc2cccc(O)c2)N=C(c2ccccc2)N1n1c(-c2ccccc2)nc2ccccc2c1=O`, the GI50 in the experiment with KM12 was 24.9 µM (inactive); in the experiment on ACHN, 21.6 µM (inactive); with HL-60 it was 25.2 µM (inactive); with Malme-3M it was 27.7 µM (inactive); in the experiment with SNB-19, 25.9 µM (inactive); with LOX IMVI, 23.4 µM (inactive). For the same compound, the GI50 is 20.7 µM (inactive) with IGROV-1; 17.1 µM (inactive) with NCI-H522; 68.5 µM (inactive) with NCI/ADR-RES; 34.7 µM (inactive) with A498; 8.28 µM (inactive) with RXF 393; 17.9 µM (inactive) in the experiment on SF-539. Besides, the GI50 in the experiment with U-251 is 35.4 µM (inactive); with MDA-MB-435, 35.6 µM (inactive); with Hs-578T, 14.3 µM (inactive); with UO-31, 27.2 µM (inactive); in the experiment with 786-0 it was 39.8 µM (inactive); in the experiment on CAKI-1, 24.7 µM (inactive).

For `COC(=O)/C(=N\NC(=O)C[N+](C)(C)C)C(C(=O)OC)C(=O)C(=O)Nc1ccccc1C(N)=O` (configuration not stated), the GI50 in the experiment on KM12, in the experiment on HCC 2998, in the experiment on ACHN, with HL-60, in the experiment with Malme-3M and in the experiment on SNB-19 was > 100 µM (inactive) each time. Further, the GI50 in the experiment on LOX IMVI, with IGROV-1, in the experiment on NCI-H522, in the experiment with A498, in the experiment on RXF 393 and in the experiment on SF-539 was > 100 µM (inactive) throughout. The GI50 in the experiment with U-251, in the experiment on UO-31, in the experiment on 786-0 and in the experiment on CAKI-1 was > 100 µM (inactive) throughout.

As to `COc1ccc([Se]c2ccc(OC)cc2)cc1`, the GI50 was > 100 µM (inactive) with KM12; > 100 µM (inactive) with HCC 2998; > 100 µM (inactive) in the experiment on ACHN; 41.5 µM (inactive) in the experiment on HL-60; > 100 µM (inactive) in the experiment with Malme-3M; > 100 µM (inactive) in the experiment on SNB-19. In addition, the GI50 in the experiment with LOX IMVI was > 100 µM (inactive); with IGROV-1, > 100 µM (inactive); in the experiment on NCI-H522, 27.2 µM (inactive); with A498, 99.1 µM (inactive); with RXF 393, 19.5 µM (inactive); in the experiment with SF-539 it was 73.3 µM (inactive). Also, the GI50 with U-251 is > 100 µM (inactive); in the experiment on UO-31 it was 2.09 µM (inactive); in the experiment on 786-0 it was > 100 µM (inactive); in the experiment with CAKI-1 it was 23.3 µM (inactive).

As to `CC(O[Si](c1ccccc1)(c1ccccc1)C(C)(C)C)[C@H](NC(=O)OC(C)(C)C)C(=O)O[Si](c1ccccc1)(c1ccccc1)C(C)(C)C` (some centres not stated), the GI50 in the experiment with KM12 is 9.91 µM (inactive); in the experiment on HCC 2998, 15.9 µM (inactive); in the experiment on ACHN, 10.8 µM (inactive); in the experiment on HL-60, 14.4 µM (inactive); in the experiment on Malme-3M, 16.5 µM (inactive); in the experiment on SNB-19, 15.5 µM (inactive). Besides, the GI50 in the experiment on IGROV-1 is 14.9 µM (inactive); with NCI/ADR-RES it was 14.4 µM (inactive); in the experiment with A498, > 10 µM (inactive); in the experiment on RXF 393 it was 13 µM (inactive); with U-251, 14.4 µM (inactive); with Hs-578T, 19.2 µM (inactive). Moreover, the GI50 was 13.2 µM (inactive) in the experiment with UO-31, 13.2 µM (inactive) in the experiment on 786-0 and 12.4 µM (inactive) with CAKI-1.

With `Oc1cn(-c2ccc(Cl)cc2)nc1-c1n[nH]c(=S)n1-c1ccccc1`, the GI50 with KM12 is 4.36 µM (inactive); with ACHN, 18.8 µM (inactive); in the experiment with HL-60 it was 4.13 µM (inactive); with Malme-3M, 16.2 µM (inactive); in the experiment with SNB-19 it was 16.8 µM (inactive); in the experiment with IGROV-1, 4.6 µM (inactive). Further, the GI50 with NCI-H522 is 5.01 µM (inactive); in the experiment with NCI/ADR-RES it was 3.79 µM (inactive); in the experiment on A498 it was 14 µM (inactive); in the experiment with RXF 393, 11.1 µM (inactive); in the experiment with SF-539 it was 5.92 µM (inactive); with U-251 it was 10.8 µM (inactive). Moreover, the GI50 is 1.95 µM (inactive) in the experiment on MDA-MB-435; 7.64 µM (inactive) in the experiment on Hs-578T; 14.2 µM (inactive) in the experiment on UO-31; 11.6 µM (inactive) in the experiment with 786-0; 8.09 µM (inactive) in the experiment with CAKI-1.

Consider `CCCCCCCCCCCC(=O)OC(COC(N)=O)COc1ccc(Cl)cc1` (configuration not stated), for which the GI50 in the experiment with KM12 is 25.8 µM (inactive); in the experiment on HCC 2998, 30.5 µM (inactive); in the experiment with ACHN, > 100 µM (inactive); in the experiment with HL-60 it was 15.3 µM (inactive); in the experiment with Malme-3M, 21.9 µM (inactive); in the experiment with SNB-19 it was 33.3 µM (inactive). For the same compound, the GI50 in the experiment with LOX IMVI is 23.2 µM (inactive); in the experiment with IGROV-1 it was 27.5 µM (inactive); with NCI-H522 it was 17.1 µM (inactive); with A498, 65.9 µM (inactive); in the experiment with RXF 393, 21 µM (inactive); in the experiment with SF-539 it was 18.8 µM (inactive). For the same compound, the GI50 with U-251 was 25.8 µM (inactive); in the experiment on UO-31, 32.9 µM (inactive); with 786-0, 35.8 µM (inactive); in the experiment with CAKI-1 it was 21.3 µM (inactive).

As to `CC(=O)NC1C(=O)CC(c2ccccc2)N(C)C1c1ccccc1` (configuration not stated), the GI50 in the experiment on KM12, with HCC 2998, with ACHN, in the experiment on HL-60, with Malme-3M and in the experiment on SNB-19 was > 100 µM (inactive) each time. Also, the GI50 with LOX IMVI was 6.17 µM (inactive); in the experiment with IGROV-1, > 100 µM (inactive); in the experiment on NCI-H522 it was > 100 µM (inactive); in the experiment on A498, > 100 µM (inactive); in the experiment with RXF 393, > 100 µM (inactive); in the experiment on SF-539, > 100 µM (inactive). Further, the GI50 was > 100 µM (inactive) with U-251, 94.8 µM (inactive) in the experiment on UO-31, > 100 µM (inactive) with 786-0 and > 100 µM (inactive) in the experiment with CAKI-1.
